Source: paper PMC5471438, “Linaclotide activates guanylate cyclase‐C/cGMP/protein kinase‐II‐dependent trafficking of CFTR in the intestine” (Physiological Reports, 2017)
Entries after “also recorded” stand apart in the source; their conditions may differ.

Assays:
[1] = system: rat jejunum; assay: Fluid secretion in ligated rat jejunal loops in vivo; set-up: species or system rat (Sprague–Dawley); settings: linaclotide 5 μg/mL/loop, 30 min, vs saline (1 mL)
Protocol: (§1) All animal studies were approved by the Institutional Animal Care and Use Committee of Yale University School of Medicine. Briefly, male Sprague–Dawley rats (200–250 g, Charles River Laboratories) were fasted overnight with access to drinking water ad libitum. Anesthesia was performed with Inactin® (Thiobutabarbital sodium salt hydrate, 120 mg/kg/i.p.). The jejunal, ileal, and proximal colonic loops (5 cm length) were prepared using sutures. Loops were instilled either with normal saline (pH7.4, 37°C) (1 mL/loop) or linaclotide (5 μg/mL/loop) for 30 min. At the end of the study, animals were euthanized with Inactin (200 mg/kg/i.p.).
The guanylate cyclase‐C (GC‐C) agonist linaclotide stimulates the production and accumulation of intracellular cGMP, which acts as a second messenger to enhance fluid secretion in the intestine (Schulz et al. 1990; Busby et al. 2013). We first tested whether linaclotide can enhance fluid secretion in vivo in the rat small intestine. Following anesthesia and laparotomy, intestinal loops were created in rat jejunum and injected either with vehicle (saline, 1 mL) or linaclotide (5 μg/1 mL). […] In this study, we examined whether linaclotide treatment also stimulates fluid secretion by recruiting CFTR to the apical surface of rat jejunum enterocytes in vivo. […]

[2] = system: CFTR; assay: Surface biotinylation of CFTR in rat jejunum enterocytes after in vivo loop treatment; settings: linaclotide 5 μg/mL/loop, 30 min in vivo, vs saline and untreated, mean ± SEM (n = 4)
[3] = system: CFTR; assay: Confocal immunofluorescence of CFTR in rat intestine; assay type: in vivo; settings: linaclotide 5 μg, 30 min
Protocol: as §1
After completion of treatment either with normal saline or linaclotide for 30 min, intestinal segments were immediately removed and briefly rinsed with ice‐cold PBS. Tissues were cut into ~2‐mm‐thick rings, fixed in 2% paraformaldehyde in PBS, pH 7.4 for 1 h at room temperature, rinsed with PBS and cryoprotected in 30% sucrose overnight. Multiple tissue samples were processed under identical conditions by the utilization of tissue arrays as previously described (Jakab et al. 2011). […] Immunolabeled sections were stored at 4°C and examined on Zeiss LSM 710 DUO laser scanning confocal microscope outfitted with a Mai‐Tai laser and electronics capable of spectrally separating fluorescence emission profiles. […]

[4] = system: human colonic mucosa; assay: Transepithelial short circuit current (Isc) across human ascending colonic mucosa, Ussing chamber; settings: human ascending colon, linaclotide 30 nmol/L and 1000 nmol/L, apical, pH 7.4, 37°C; mean ± SEM (n = 12)
[5] = system: cGKII (PKGII); assay: VASP Ser239 phosphorylation in C2BBe cells, Western blot; assay type: cell-based, human; settings: linaclotide 1 and 3.27 μmol/L, 30 min, 8Br‐cGMP 0.2 and 1 mmol/L positive control
Protocol: C2BBe or T84 cells were homogenized in TGH lysis buffer [25 mmol/L HEPES, 10% (vol/vol) glycerol, 1% (vol/vol) Triton‐ × 100, pH 7.4] containing protease inhibitors (10 nmol/L iodoacetamide, 1 mmol/L phenylmethylsulfonyl fluoride (PMSF), 2 μg/mL leupeptin) for 30 min on ice. Homogenates were solubilized, subject to centrifugation at 13,200 g for 15 min at 4°C, and cleared supernatants were recovered. Protein concentration of the supernatant was determined with Coomassie Protein Assay Reagent (Pierce) and samples prepared and analyzed as described (Kravtsov et al. 2016). Quantification of surface‐labeled proteins was performed with Quantity One image analysis software.
VASP was originally characterized as a substrate for both PKG (cGMP‐dependent kinase) and PKA (cAMP‐dependent kinase). […] To determine linaclotide‐induced activation of cGKII, we determined the phosphorylation of VASP^Ser239 30 min following treatment either with vehicle or linaclotide (1 μmol/L and 3.27 μmol/L; the 3.27 μmol/L concentration is equivalent to the 5 μg dose of linaclotide that was used in vivo in the rat jejunum loop). The membrane permeant cGMP analog, 8 Br‐cGMP (0.2 mmol/L, 1 mmol/L), was used as a positive control.

[6] = system: GC‐C; assay: cGMP in human intestinal mucosa tissues and supernatants; settings: human jejunum, ileum, ascending colon mucosa, linaclotide 1 μmol/L, 30 and 60 min, 37°C, IBMX 1 mmol/L, EIA, mean ± SD (n = 4)
[7] = system: CFTR; assay: Surface biotinylation of CFTR in C2BBe cells; assay type: cell-based, human; settings: linaclotide 1 μmol/L and 3.27 μmol/L, 30 min
[8] = system: CFTR; assay: Surface biotinylation of CFTR in T84 cells; assay type: cell-based, human; settings: linaclotide 1 μmol/L and 3.27 μmol/L, 30 min
[9] = system: rat proximal colonic mucosa; set-up: method as in 2 sources, one per row (each row's own in cited_ref): ref Tchernychev et al. 2015 ||| ref Vaandrager et al. 1997; settings: rat proximal colon / colonic epithelium; ref Tchernychev et al. 2015; read-out: EC50 for transepithelial ion current; cited from earlier work
[10] = system: GC‐C; settings: ref Bryant et al. 2010; Busby et al. 2010; cited from earlier work
Source text: The synthetic GC‐C agonist peptide, linaclotide, is an FDA‐approved drug for adult patients with Irritable Bowel Syndrome with Constipation (IBS‐C) and Chronic Idiopathic Constipation (CIC) (Bryant et al. 2010; Busby et al. 2010). IBS‐C is a highly prevalent, chronic functional gastrointestinal disorder with a global prevalence estimated to range from 5% to 20% (Mayer 2008; Quigley et al. 2012).

[11] = system: GC‐C/cGMP pathway; settings: modulated by MRP4; ref Tchernychev et al. 2015; cited from earlier work
Source text: The cystic fibrosis transmembrane conductance regulator (CFTR) is a cyclic adenosine monophosphate (cAMP) and cGMP‐regulated anion‐selective channel that is expressed on the apical domain of intestinal epithelial cells where it serves as the main conductive pathway for Cl^− and HCO3 ^− ions transported across the membrane into the lumen (Riordan et al. 1989; Anderson et al. 1991; Vaandrager et al. 1997).

[12] = Stability of linaclotide in human mucosa tissue supernatants by LC-MS; settings: human intestinal mucosa supernatants, 1 μmol/L, 30 and 60 min incubation, 37°C

## linaclotide
[1]
  fluid secretion in jejunal loop: robust fluid secretion; also recorded: distended and tightly filled with fluid; also recorded: robust increase in fluid accumulation in jejunum loops
[2]
  surface CFTR (surface biotinylation, Western blot): highest levels of surface CFTR; also recorded: robust increase in surface CFTR when compared to the untreated intestine
[3]
  CFTR localization in brush border (confocal): accumulation of CFTR in the brush border
[4]
  linaclotide-induced transepithelial ion current (Isc): induced transepithelial ion current at concentrations of 30 nmol/L and 1000 nmol/L
[5]
  phosphorylation of VASP Ser239: more robust phosphorylation of VASP^Ser239 compared to 8Br‐cGMP; also recorded: higher levels of VASP^Ser239 phosphorylation compared to the lower concentration
[5]; listed as Linaclotide
  phosphorylation of VASP Ser239: more strongly enhanced phosphorylation of VASP^Ser239 compared to the cGMP analog 8‐Br‐cGMP
[6]
  cGMP level in supernatant (extracellular): greater after 30 min, compared to levels measured after 60 min
  cGMP level in tissue (intracellular): greater after 30 min, compared to levels measured after 60 min
[6]; listed as Linaclotide
  cGMP level in supernatant (extracellular): increased levels of both intracellular and extracellular cGMP
  cGMP level in tissue (intracellular): increased levels of both intracellular and extracellular cGMP
[7]
  CFTR recruitment to cell surface: increased cell surface CFTR levels; also recorded: robust recruitment of CFTR to the apical surface; also recorded: robust increase in surface levels of CFTR compared to untreated control cells; also recorded: higher surface CFTR levels in C2BBe cells compared to T84 cells
[8]
  CFTR recruitment to cell surface: increased cell surface CFTR levels; also recorded: robust recruitment of CFTR to the apical surface; also recorded: robust increase in surface levels of CFTR compared to untreated control cells
[9]
  EC50: 9.2 nM
[10]
  fluid secretion: increased fluid secretion
  intestinal transit: accelerated intestinal transit
[11]
  transepithelial electrolyte secretion: increased transepithelial electrolyte secretion across the mucosa
[12]
  stability of linaclotide in tissue supernatants: stable under these conditions
